Experimental data from the supplement of paper PMC10307832.

Experiments:
Test in all cases: relative viability (nuclei count vs DMSO), 5 days (fraction); higher = more cells survive
[1] = compound: CCn1c(-c2nonc2N)nc2c(C#CC(C)(C)O)ncc(OC[C@H]3CCCNC3)c21 + CC(=O)c1c(C)c2cnc(Nc3ccc(N4CCNCC4)cn3)nc2n(C2CCCC2)c1=O [Palbociclib] (partner 0.5 µM)
In short: (§1)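 Relative viability is defined as nuclei in treated wells over nuclei in vehicle wells. Duplicate plates were run and medians reported. Lung cancer cell lines in 1536-well plates were dosed by pin tool one day after seeding, with one drug or with a fixed anchor-drug dose plus five library-drug doses (not always all listed) in √10 steps, and nuclei were counted after 5 days.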

[2] = compound: CCn1c(-c2nonc2N)nc2c(C#CC(C)(C)O)ncc(OC[C@H]3CCCNC3)c21 + Cc1nc(Nc2ncc(C(=O)Nc3c(C)cccc3Cl)s2)cc(N2CCN(CCO)CC2)n1 [Dasatinib] (partner 0.075 µM)
In short: as §1

BAM7 + Bortezomib = compound: CCOC1=CC=CC=C1N=NC2=C(NN(C2=O)C3=NC(=CS3)C4=CC=CC=C4)C [BAM7] + CC(C)C[C@H](NC(=O)[C@H](Cc1ccccc1)NC(=O)c1cnccn1)B(O)O [Bortezomib] (partner 0.002 µM)
In short: as §1

BAM7 + Linsitinib = compound: CCOC1=CC=CC=C1N=NC2=C(NN(C2=O)C3=NC(=CS3)C4=CC=CC=C4)C [BAM7] + C[C@]1(O)C[C@@H](c2nc(-c3ccc4ccc(-c5ccccc5)nc4c3)c3c(N)nccn32)C1 [Linsitinib] (partner 1 µM)
In short: as §1

Cell Line | relative viability ([1]; first compound 0.01 µM) | relative viability ([1]; first compound 0.03162 µM) | relative viability ([1]; first compound 0.1 µM) | relative viability ([1]; first compound 0.3162 µM) | relative viability ([1]; first compound 1 µM) | relative viability ([2]; first compound 0.01 µM) | relative viability ([2]; first compound 0.03162 µM) | relative viability ([2]; first compound 0.1 µM) | relative viability ([2]; first compound 0.3162 µM) | relative viability ([2]; first compound 1 µM) | relative viability (BAM7 + Bortezomib; first compound 0.5 µM) | relative viability (BAM7 + Bortezomib; first compound 5 µM) | relative viability (BAM7 + Bortezomib; first compound 15.81 µM) | relative viability (BAM7 + Bortezomib; first compound 50 µM) | relative viability (BAM7 + Linsitinib; first compound 0.5 µM) | relative viability (BAM7 + Linsitinib; first compound 5 µM) | relative viability (BAM7 + Linsitinib; first compound 15.81 µM) | relative viability (BAM7 + Linsitinib; first compound 50 µM)
HOP-62 | 0.414 | 0.436 | 0.308 | 0.383 | 0.395 | 0.64 | 0.587 | 0.66 | 0.659 | 0.607 | 0.854 | 0.98 | 1.05 | 0.847 | 1.09 | 1.23 | 0.904 | 0.756
LC-2-ad | 0.547 | 0.455 | 0.546 | 0.502 | 0.462 | 0.384 | 0.487 | 0.509 | 0.414 | 0.641 | 1.05 | 0.974 | 0.957 | 1 | 0.856 | 0.898 | 0.812 | 0.783
LCLC-97TM1 | 0.19 | 0.245 | 0.234 | 0.205 | 0.2 | 0.799 | 0.982 | 0.803 | 0.739 | 0.845 | 0.721 | 0.608 | 0.898 | 0.76 | 0.174 | 0.184 | 0.176 | 0.179
LCLC-103H | 0.511 | 0.475 | 0.503 | 0.48 | 0.352 | 0.381 | 0.451 | 0.445 | 0.444 | 0.433 | 1.15 | 1.1 | 1.1 | 1.18 | 1.06 | 1.22 | 1.15 | 0.933
LOU-NH91 | 0.511 | 0.541 | 0.527 | 0.535 | 0.479 | 0.564 | 0.575 | 0.543 | 0.537 | 0.337 | 0.476 | 0.508 | 0.546 | 0.486 | 0.912 | 0.936 | 0.893 | 0.996
LU99A | 0.37 | 0.45 | 0.388 | 0.406 | 0.423 | 0.499 | 0.508 | 0.662 | 0.51 | 0.451 | 1.21 | 1.22 | 1.34 | 1.15 | 0.565 | 0.542 | 0.491 | 0.6
LXF-289 | 0.63 | 0.568 | 0.608 | 0.581 | 0.605 | 0.249 | 0.223 | 0.205 | 0.234 | 0.187 | 1.07 | 1.1 | 1.02 | 1.01 | 1.02 | 1.04 | 0.955 | 0.962
NCI-H23 | 0.44 | 0.481 | 0.52 | 0.575 | 0.55 | 0.798 | 0.631 | 0.795 | 1.05 | 0.884 | 1.23 | 1.05 | 0.933 | 1.12 | 0.507 | 0.663 | 0.698 | 0.679
NCI-H322M | 0.456 | 0.48 | 0.487 | 0.463 | 0.475 | 0.246 | 0.233 | 0.245 | 0.264 | 0.271 | 1.2 | 1.2 | 1.05 | 1.02 | 0.892 | 0.805 | 0.949 | 0.845
NCI-H441 | 0.225 | 0.206 | 0.227 | 0.193 | 0.207 | 0.585 | 0.593 | 0.499 | 0.637 | 0.505 | 0.48 | 0.453 | 0.464 | 0.447 | 0.547 | 0.597 | 0.648 | 0.399
NCI-H460 | 0.146 | 0.0929 | 0.18 | 0.127 | 0.139 | 0.526 | 0.461 | 0.533 | 0.45 | 0.516 | 1.38 | 1.1 | 1.04 | 1.01 | 1.02 | 0.765 | 0.653 | 0.754
NCI-H520 | 0.185 | 0.2 | 0.164 | 0.153 | 0.165 | 0.223 | 0.2 | 0.181 | 0.159 | 0.134 | 0.625 | 0.75 | 0.441 | 0.708 | 0.916 | 1.03 | 1.08 | 0.87
NCI-H647 | 0.349 | 0.401 | 0.416 | 0.309 | 0.337 | 0.193 | 0.224 | 0.184 | 0.152 | 0.164 | 1.11 | 0.936 | 1.03 | 1.1 | 1.27 | 1.32 | 1.13 | 1.12
NCI-H650 | 0.318 | 0.33 | 0.304 | 0.368 | 0.325 | 0.44 | 0.392 | 0.453 | 0.457 | 0.448 | 0.884 | 0.948 | 0.878 | 0.885 | 0.867 | 0.95 | 0.825 | 1.19
NCI-H661 | 0.446 | 0.399 | 0.39 | 0.389 | 0.372 | 0.996 | 0.86 | 0.9 | 0.751 | 0.764 | 0.807 | 0.738 | 0.656 | 0.827 | 0.672 | 0.605 | 0.433 | 0.601
NCI-H727 | 0.667 | 0.695 | 0.52 | 0.647 | 0.734 | 0.399 | 0.422 | 0.353 | 0.373 | 0.459 | 0.832 | 1.14 | 0.916 | 0.739 | 0.273 | 0.416 | 0.314 | 0.245
NCI-H838 | 0.19 | 0.221 | 0.199 | 0.172 | 0.227 | 0.29 | 0.267 | 0.283 | 0.296 | 0.279 | 0.771 | 0.961 | 0.631 | 1.1 | 1.12 | 1.06 | 0.982 | 0.994
